This assay addresses CDK7/CycH/MNAT1 (Homo sapiens (Human), UniProt P50613). Nature of the assay: Biochemical assay for CDK7 (TR-FRET kinase assay). Conditions: for inhibition at 10 µM: read-out: % inhibition @ 10 μM. Put shortly: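 CDK7/CycH/MNAT1 (5 nM) was preincubated with compound for 60 min at room temperature, then reacted for 60 min with 100 nM ULight-MBP and 1 mM ATP in 1% DMSO. Irreversibility was probed with 20, 60 and 180 min preincubations.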
(Time-resolved FRET reads energy transfer from a long-lived donor to a nearby acceptor.)

Where [1] appears, read: IC50, 60 min pre-incubation, 1 mM ATP.
Where [2] appears, read: 10 μM compound, 60 min pre-incubation, 1 mM ATP.
Where [3] appears, read: 60 min pre-incubation, 1 mM ATP, read-out: IC50.

Experimental findings from patent publication US11186576B2, “Pyrazolo[1,5-A][1,3,5]triazine and pyrazolo[1,5-A]pyrimidine derivatives as CDK inhibitors” (Aurigene Discovery Technologies Limited, priority 2015, dated 2021) are described below.

Molecules are shown by their SMILES. Where two headings read alike, the source gives them in different places.

Sequence of CDK7/CycH/MNAT1 (P50613 whole entry): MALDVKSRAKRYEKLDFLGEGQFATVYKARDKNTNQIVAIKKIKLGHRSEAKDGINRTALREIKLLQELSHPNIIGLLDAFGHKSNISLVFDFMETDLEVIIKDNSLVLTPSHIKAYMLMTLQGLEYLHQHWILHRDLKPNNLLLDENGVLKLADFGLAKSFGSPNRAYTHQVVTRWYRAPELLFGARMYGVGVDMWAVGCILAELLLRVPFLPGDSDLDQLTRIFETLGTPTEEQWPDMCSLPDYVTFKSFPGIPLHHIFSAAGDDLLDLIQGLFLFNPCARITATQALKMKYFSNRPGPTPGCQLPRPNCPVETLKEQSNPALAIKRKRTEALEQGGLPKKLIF
Sequence of CDK7/CycH/MNAT1 (P51946 whole entry partner): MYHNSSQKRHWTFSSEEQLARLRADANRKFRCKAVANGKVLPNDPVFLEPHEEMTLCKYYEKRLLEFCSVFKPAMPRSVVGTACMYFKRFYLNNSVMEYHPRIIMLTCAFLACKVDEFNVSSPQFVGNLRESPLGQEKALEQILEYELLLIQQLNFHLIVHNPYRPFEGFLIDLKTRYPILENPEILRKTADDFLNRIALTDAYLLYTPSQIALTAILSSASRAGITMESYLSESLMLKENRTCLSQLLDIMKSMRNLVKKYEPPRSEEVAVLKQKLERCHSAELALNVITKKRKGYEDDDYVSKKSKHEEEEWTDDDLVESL
Sequence of CDK7/CycH/MNAT1 (P51948 whole entry partner): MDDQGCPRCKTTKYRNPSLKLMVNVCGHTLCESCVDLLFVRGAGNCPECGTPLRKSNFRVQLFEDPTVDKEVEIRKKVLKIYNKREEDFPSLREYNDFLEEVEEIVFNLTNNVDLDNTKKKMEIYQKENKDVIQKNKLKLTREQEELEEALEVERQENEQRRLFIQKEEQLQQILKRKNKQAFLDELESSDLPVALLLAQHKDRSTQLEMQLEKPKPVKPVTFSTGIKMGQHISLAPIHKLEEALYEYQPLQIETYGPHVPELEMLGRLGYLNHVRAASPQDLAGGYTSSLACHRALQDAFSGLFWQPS

As usually defined, the IC50 is the point on the concentration scale where inhibition reaches its midpoint. One may read the inhibition as the percentage by which the read-out fell short of the control. Take `CC(C)c1cnn2c(NCc3cccc(OC(=O)N4CCN(C(=O)/C=C/CN(C)C)CC4)c3)nc(NC3CCOCC3)nc12` [Compound 75, 3-(((8-isopropyl-2-((tetrahydro-2H-pyran-4-yl)amino)pyrazolo[1,5-a][1,3,5]triazin-4-yl)amino)methyl)phenyl(E)-4-(4-(dimethylamino)but-2-enoyl)piperazine-1-carboxylate]: the inhibition at 10 µM came out at 97%. This molecule also registered a concentration for half-maximal inhibition (IC50) under setting [1] below 300 nM.
As to `CC(C)c1cnn2c(NCc3cccc(NC(=O)C4CCN4C/C=C/C(=O)N(C)C)c3)nc(NC3CCOCC3)nc12` (centres unmarked) [Compound 76, (E)-1-(4-(dimethylamino)-4-oxobut-2-en-1-yl)-N-(3-(((8-isopropyl-2-((tetrahydro-2H-pyran-4-yl)amino)pyrazolo[1,5-a][1,3,5]triazin-4-yl)amino)methyl)phenyl)azetidine-2-carboxamide], the inhibition at 10 µM under setting [2] stood at 81%. Under setting [3], the IC50 was above 1000 nM.
The corresponding values for `CC(C)c1cnn2c(NCc3cccc(NC(=O)C4CCCCN4C(=O)/C=C/CN4CCCC4)c3)nc(NC3CCOCC3)nc12` (centres unmarked) [Compound 77, (E)-N-(3-(((8-isopropyl-2-((tetrahydro-2H-pyran-4-yl)amino)pyrazolo[1,5-a][1,3,5]triazin-4-yl)amino)methyl)phenyl)-1-(4-(pyrrolidin-1-yl)but-2-enoyl)piperidine-2-carboxamide] are 99% and below 300 nM.
The corresponding values for `C=CC(=O)NCC(=O)Nc1cccc(CNc2nc(NC3CCOCC3)nc3c(C(C)C)cnn23)c1` [Compound 79, N-(2-((3-(((8-isopropyl-2-((tetrahydro-2H-pyran-4-yl)amino)pyrazolo[1,5-a][1,3,5]triazin-4-yl)amino)methyl)phenyl)amino)-2-oxoethyl)acrylamide] are 96% and below 300 nM.
As for `C=CC(=O)NC(C)C(=O)Nc1cccc(CNc2nc(NC3CCOCC3)nc3c(C(C)C)cnn23)c1` (centres unmarked) [Compound 80, N-(1-((3-(((8-isopropyl-2-((tetrahydro-2H-pyran-4-yl)amino)pyrazolo[1,5-a][1,3,5]triazin-4-yl)amino)methyl)phenyl)amino)-1-oxopropan-2-yl)acrylamide], the inhibition at 10 µM under setting [2] turned out to be 94%. The IC50 under setting [3] was 300 to 1000 nM.
With `C=CC(=O)N(C)CC(=O)Nc1cccc(CNc2nc(NC3CCOCC3)nc3c(C(C)C)cnn23)c1` [Compound 81, N-(2-((3-(((8-isopropyl-2-((tetrahydro-2H-pyran-4-yl)amino)pyrazolo[1,5-a][1,3,5]triazin-4-yl)amino)methyl)phenyl)amino)-2-oxoethyl)-N-methylacrylamide], the inhibition at 10 µM under setting [2] came out at 98%. The IC50 under setting [3] is below 300 nM.
In the same order, the values of `C=CC(=O)NC(C)(C)C(=O)Nc1cccc(CNc2nc(NC3CCOCC3)nc3c(C(C)C)cnn23)c1` [Compound 82, N-(1-((3-(((8-isopropyl-2-((tetrahydro-2H-pyran-4-yl)amino)pyrazolo[1,5-a][1,3,5]triazin-4-yl)amino)methyl)phenyl)amino)-2-methyl-1-oxopropan-2-yl)acrylamide] are 93% and 300 to 1000 nM.
In the same order, the values of `C=CC(=O)N(C)C1(C(=O)Nc2cccc(CNc3nc(NC4CCOCC4)nc4c(C(C)C)cnn34)c2)CC1` [Compound 84, N-(3-(((8-isopropyl-2-((tetrahydro-2H-pyran-4-yl)amino)pyrazolo[1,5-a][1,3,5]triazin-4-yl)amino)methyl)phenyl)-1-(N-methylacrylamido)cyclopropane-1-carboxamide] are 97% and below 300 nM.
In the case of `C=CC(=O)N1CCC1C(=O)Nc1cccc(Nc2nc(NC3CCOCC3)nc3c(C(C)C)cnn23)c1` (centres unmarked) [Compound 86, 1-acryloyl-N-(3-((8-isopropyl-2-((tetrahydro-2H-pyran-4-yl)amino)pyrazolo[1,5-a][1,3,5]triazin-4-yl)amino)phenyl)azetidine-2-carboxamide], the inhibition at 10 µM under setting [2] was 99%. Further, the IC50 under setting [3] was below 300 nM.
On to `C=CC(=O)N[C@H]1CC[C@@H](C(=O)Nc2cccc(Nc3nc(NC4CCOCC4)nc4c(C(C)C)cnn34)c2)CC1` [Compound 87, (1,4-cis)-4-acrylamido-N-(3-((8-isopropyl-2-((tetrahydro-2H-pyran-4-yl)amino)pyrazolo[1,5-a][1,3,5]triazin-4-yl)amino)phenyl)cyclohexane-1-carboxamide], for which, under setting [2], the “% inhibition @ 10 μM” value is 32%.
For the molecule `C=CC(=O)N1CCCC(C(=O)Nc2cccc(CNc3nc(OC4CCN(C)CC4)nc4ccnn34)c2)C1` (centres unmarked) [Compound 89, 1-acryloyl-N-(3-(((2-((1-methylpiperidin-4-yl)oxy)pyrazolo[1,5-a][1,3,5]triazin-4-yl)amino)methyl)phenyl)piperidine-3-carboxamide], the inhibition at 10 µM under setting [2] is 38%.
As to `C=CC(=O)N[C@H]1CC[C@@H](C(=O)Nc2cccc(CNc3nc(OC4CCOC4)nc4c(C(C)C)cnn34)c2)CC1` (stereo partly drawn) [Compound 100, (1,4-cis)-4-acrylamido-N-(3-(((8-isopropyl-2-((tetrahydrofuran-3-yl)oxy)pyrazolo[1,5-a][1,3,5]triazin-4-yl)amino)methyl)phenyl)cyclohexane-1-carboxamide], under setting [2], the inhibition at 10 µM was found to be 82%. For the same molecule, under setting [3], the IC50 is 300 to 1000 nM.
For `C=CC(=O)N1CCC(C(=O)Nc2cccc(CNc3nc(OCC(C)C)nc4c(C(C)C)cnn34)c2)C1` (centres unmarked) [Compound 102, 1-acryloyl-N-(3-(((2-isobutoxy-8-isopropylpyrazolo[1,5-a][1,3,5]triazin-4-yl)amino)methyl)phenyl)pyrrolidine-3-carboxamide], the inhibition at 10 µM under setting [2] turned out to be 82%. For the same molecule, the IC50 under setting [3] was 300 to 1000 nM.
In the same order, the values of `C=CC(=O)N1CCC(C(=O)Nc2cccc(CNc3nc(OCCOC)nc4c(C(C)C)cnn34)c2)C1` (centres unmarked) [Compound 103, 1-acryloyl-N-(3-(((8-isopropyl-2-(2-methoxyethoxy)pyrazolo[1,5-a][1,3,5]triazin-4-yl)amino)methyl)phenyl)pyrrolidine-3-carboxamide] are 80% and above 1000 nM.
Consider `C=CC(=O)N1CCC(C(=O)Nc2cccc(CNc3nc(OCCOCCOC)nc4c(C(C)C)cnn34)c2)C1` (centres unmarked) [Compound 104, 1-acryloyl-N-(3-(((8-isopropyl-2-(2-(2-methoxyethoxy)ethoxy)pyrazolo[1,5-a][1,3,5]triazin-4-yl)amino)methyl)phenyl)pyrrolidine-3-carboxamide], for which the inhibition at 10 µM under setting [2] is 78%. The concentration for half-maximal inhibition (IC50) under setting [3] was above 1000 nM.
In the same order, the values of `C=CC(=O)N1CCOC(C(=O)Nc2cccc(CNc3nc(OC4CCN(C)CC4)nc4c(C(C)C)cnn34)c2)C1` (centres unmarked) [Compound 112, 4-acryloyl-N-(3-(((8-isopropyl-2-((1-methylpiperidin-4-yl)oxy)pyrazolo[1,5-a][1,3,5]triazin-4-yl)amino)methyl)phenyl)morpholine-2-carboxamide] are 99% and below 300 nM.
Turning to `C=CC(=O)N1CCOCC1C(=O)Nc1cccc(CNc2nc(OC3CCN(C)CC3)nc3c(C(C)C)cnn23)c1` (centres unmarked) [Compound 113, 4-acryloyl-N-(3-(((8-isopropyl-2-((1-methylpiperidin-4-yl)oxy)pyrazolo[1,5-a][1,3,5]triazin-4-yl)amino)methyl)phenyl)morpholine-3-carboxamide], under setting [3], the IC50 was below 300 nM.
Regarding `C=CC(=O)N[C@H]1CC[C@@H](C(=O)Nc2cc(CNc3nc(OC4CCN(C)CC4)nc4c(C(C)C)cnn34)ccc2F)CC1` [Compound 118, (1,4-cis)-4-acrylamido-N-(2-fluoro-5-(((8-isopropyl-2-((1-methylpiperidin-4-yl)oxy)pyrazolo[1,5-a][1,3,5]triazin-4-yl)amino)methyl)phenyl)cyclohexane-1-carboxamide], under setting [2], the inhibition at 10 µM is 93%. Moreover, under setting [3], the IC50 was in the range of 300 to 1000 nM.
For the molecule `C=CC(=O)N1CCCC(C(=O)Nc2ccc(CNc3nc(OC4CCN(C)CC4)nc4c(C(C)C)cnn34)c[n+]2[O-])C1` (centres unmarked) [Compound 120, 2-(1-acryloylpiperidine-3-carboxamido)-5-(((8-isopropyl-2-((1-methylpiperidin-4-yl)oxy)pyrazolo[1,5-a][1,3,5]triazin-4-yl)amino)methyl)pyridine 1-oxide], the inhibition at 10 µM under setting [2] is 93%. Moreover, the IC50 under setting [3] was below 300 nM.
As for `C=CC(=O)N1CCN(C(=O)Oc2cccc(CNc3nc(OC4CCN(C)CC4)nc4c(C(C)C)cnn34)c2)CC1` [Compound 121, 3-(((8-isopropyl-2-((1-methylpiperidin-4-yl)oxy)pyrazolo[1,5-a][1,3,5]triazin-4-yl)amino)methyl)phenyl 4-acryloylpiperazine-1-carboxylate], the inhibition at 10 µM worked out at 93%. Further, the IC50 under setting [1] was below 300 nM.
Turning to `CC(C)c1cnn2c(NCc3ccc(F)c(NC(=O)C4CCCN(C(=O)/C=C/CN(C)C)C4)c3)nc(OC3CCN(C)CC3)nc12` (centres unmarked) [Compound 123, (E)-1-(4-(dimethylamino)but-2-enoyl)-N-(2-fluoro-5-(((8-isopropyl-2-((1-methylpiperidin-4-yl)oxy)pyrazolo[1,5-a][1,3,5]triazin-4-yl)amino)methyl)phenyl)piperidine-3-carboxamide], the inhibition at 10 µM under setting [2] came to 96%. Besides, the IC50 under setting [3] is below 300 nM.
On to `C=CC(=O)NC1CCC(C(=O)Nc2cccc(Nc3nc(OC4CCN(C)CC4)nc4c(C(C)C)cnn34)c2)CC1` (stereo not drawn) [Compound 126, (1,4-cis)-4-acrylamido-N-(3-((8-isopropyl-2-((1-methylpiperidin-4-yl)oxy)pyrazolo[1,5-a][1,3,5]triazin-4-yl)amino)phenyl)cyclohexane-1-carboxamide], for which, under setting [2], the inhibition at 10 µM was 80%.
Consider `C=CC(=O)N[C@H]1CC[C@@H](C(=O)Nc2cccc(Nc3nc(OC4CCN(C)CC4)nc4c(C(C)C)cnn34)c2)CC1` [Compound 126, (1,4-cis)-4-acrylamido-N-(3-((8-isopropyl-2-((1-methylpiperidin-4-yl)oxy)pyrazolo[1,5-a][1,3,5]triazin-4-yl)amino)phenyl)cyclohexane-1-carboxamide], for which the IC50 under setting [3] was above 1000 nM.
